Experimental findings from patent US10165779B2, “Substituted pyrazolylpyrazole derivative and use of same as herbicide” (KYOYU AGRI CO., LTD., priority 2015, dated 2019) are described below.

What all share (type): in vivo
In one series the test system is Echinochloa crus-galli. Kind of series: Paddy herbicidal activity test. The settings on record: irrigated paddy pot, treated at 3.5 leaf stage of Echinochloa crus-galli, 30 days. On the procedure:
(§1) After treating for 30 days in a glass greenhouse at an average atmospheric temperature of 30° C., the herbicidal efficacy thereof was investigated. Evaluation of herbicidal efficacy was carried out by comparing growth inhibition rate (%) with an untreated group, while evaluation of phytotoxicity was carried out by comparing growth inhibition rate (%) with the state of a complete eradication group, and were evaluated at 11 levels indicated below. […] 2: 20% to less than 30% 3: 30% to less than 40% 4: 40% to less than 50% 5: 50% to less than 60% 6: 60% to less than 70% 7: 70% to less than 80% […]

Another series relates to Monochoria vaginalis. Kind of series: Paddy herbicidal activity test. Conditions: irrigated paddy pot, 30 days. As for the experimental part: as §1
The next series has as its system Scirpus juncoides. Kind of series: Paddy herbicidal activity test. The settings on record: irrigated paddy pot, 30 days. As for the experimental part:
as §1

Series [1] deals with Amaranthus retroflexus. Nature of the series: Farming soil treatment test. Conditions: soil surface spray prior to weed growth, 30 days. On the procedure:
(§2) Field soil was filled into a 1/6000 are pot followed by seeding with Digitaria cilaris, Chenopodium album and Amaranthus retroflexus and covering with soil.
(§3) Wettable powders of compounds of formula (I) shown in Table 1 prepared in compliance with the preparation examples were diluted. with water to the prescribed amount of chemical and uniformly sprayed onto each soil surface layer using 100 liters of sprayed water per 10 are prior to weed growth following seeding.
(§4) After treating for 30 days in a glass greenhouse at an average atmospheric temperature of 30° C., the herbicidal efficacy thereof was investigated.
(§5) Evaluation of herbicidal efficacy was carried out in the same manner as the above-mentioned Test Example 1.

The subject of series [2] is Chenopodium album. Kind of series: Farming soil treatment test. The settings on record: soil surface spray prior to weed growth, 30 days. On the procedure: as §2, §3, §4, §5
For series [3], the system named is Digitaria ciliaris. Nature of the series: Farming soil treatment test. The settings on record: soil surface spray prior to weed growth, 30 days. As for the experimental part: as §2, §3, §4, §5
Series [4] deals with Amaranthus retroflexus. Kind of series: Weed foliar treatment test (Test 3, 1.0 to 2.0 leaf stage). Conditions: foliar spray at 1.0 to 2.0 leaf stage of Digitaria ciliaris, 3 weeks. As for the experimental part: (§6) Soil was filled into a 1/6000 are pot followed by seeding with Digitaria ciliaris, Chenopodium album and Amaranthus retroflexus, covering with soil, and cultivating in a glass greenhouse at an average atmospheric temperature of 25° C.
(§7) Wettable powders of Target Compound (I) shown in Table 1 prepared in compliance with the preparation examples were diluted with water to the prescribed amount of chemical and uniformly sprayed onto the weeds using 150 liters of sprayed water per 10 are when Digitaria ciliaris had grown to the 1.0 to 2.0 leaf stage.
(§8) After treating for 3 weeks in a glass greenhouse at an average atmospheric temperature of 25° C., the herbicidal efficacy thereof was investigated.
as §5

The test system of series [5] is Chenopodium album. The series is described as above. The settings on record: foliar spray at 1.0 to 2.0 leaf stage of Digitaria ciliaris, 3 weeks. As for the experimental part:
as §6, §7, §8, §5

In series [6] the test system is Digitaria ciliaris. Described as above. The settings on record: foliar spray at 1.0 to 2.0 leaf stage of Digitaria ciliaris, 3 weeks. On the procedure: as §6, §7, §8, §5
For series [7], the system named is Digitaria ciliaris. Kind of series: Weed foliar treatment test (Test 4, 4.0 to 5.0 leaf stage). The settings on record: 10 g a.i./10a; foliar spray at 4.0 to 5.0 leaf stage of Digitaria ciliaris (plant height 10 cm to 15 cm); 20 days. As for the experimental part: (§9) Field soil was filled into a 1/4500 are pot followed by seeding with Digitaria ciliaris and Galinsoga parviflora, covering with soil and cultivating in a glass greenhouse at an average atmospheric temperature of 25° C.
(§10) Wettable powders of Target Compound (I) shown in Table 1 prepared in compliance with the preparation examples were diluted with water to the prescribed amount of chemical and uniformly sprayed onto the weeds using 100 liters of sprayed water per 10 are when Digitaria ciliaris had grown to the 4.0 to 5.0 leaf stage (plant height: 10 cm to 15 cm).
(§11) After treating for 20 days in a glass greenhouse at an average atmospheric temperature of 25° C., the herbicidal efficacy thereof was investigated.
as §5

The test system of the next series is Galinsoga parviflora. The series is described as above. Conditions: 10 g a.i./10a; foliar spray at 4.0 to 5.0 leaf stage of Digitaria ciliaris; 20 days. On the procedure:
as §9, §10, §11, §5

For another series, the system named is Oryza sativa. Nature of the series: Paddy herbicidal activity test, phytotoxicity to transplanted rice. Conditions: rice transplanted at 2.0 leaf stage, 30 days. On the procedure: as §1

As to `CCOC(=O)N(C(=O)OC)c1c(C#N)cnn1-c1nn2c(c1Cl)CCCC2` [Compound 1, Methyl N-(3-chloro-4,5,6,7-tetrahydropyrazolo[1,5-a]pyridine-2-yl)-4-cyanopyr azol-5-yl)-N-ethoxycarbonyl Carbamate], the “herbicidal efficacy Echinochloa crus-galli” value in the series on Echinochloa crus-galli (1g a.i./10a) is 9 (9: 90% to less than 100%); in the series with Echinochloa crus-galli (5g a.i./10a), 10 (10: 100%). In addition, the “herbicidal efficacy Monochoria vaginalis” value in the series on Monochoria vaginalis (1g a.i./10a) and with Monochoria vaginalis (5g a.i./10a) was 10 (10: 100%) each time. The “herbicidal efficacy Scirpus juncoides” value in the series on Scirpus juncoides (1g a.i./10a) and in the series on Scirpus juncoides (5g a.i./10a) was 9 (9: 90% to less than 100%) each time. Moreover, the “herbicidal efficacy Amaranthus retroflexus” value with Amaranthus retroflexus [1] (5g a.i./10a) is recorded as 9 (9: 90% to less than 100%); in the series with Amaranthus retroflexus [1] (10g a.i./10a) it was 9 (9: 90% to less than 100%); in the series with Amaranthus retroflexus [4] (5g a.i./10a), 10 (10: 100%); with Amaranthus retroflexus [4] (10g a.i./10a), 10 (10: 100%). The “herbicidal efficacy Chenopodium album” value was 9 (9: 90% to less than 100%) in the series on Chenopodium album [2] (5g a.i./10a), 10 (10: 100%) in the series with Chenopodium album [2] (10g a.i./10a), 10 (10: 100%) in the series on Chenopodium album [5] (5g a.i./10a) and 10 (10: 100%) in the series on Chenopodium album [5] (10g a.i./10a). Also, the “herbicidal efficacy Digitaria ciliaris” value was 9 (9: 90% to less than 100%) in the series with Digitaria ciliaris [3] (5g a.i./10a); 9 (9: 90% to less than 100%) in the series with Digitaria ciliaris [3] (10g a.i./10a); 9 (9: 90% to less than 100%) in the series on Digitaria ciliaris [6] (5g a.i./10a); 10 (10: 100%) in the series on Digitaria ciliaris [6] (10g a.i./10a); 9 (9: 90% to less than 100%) in the series with Digitaria ciliaris [7]. For the same molecule, in the series with Galinsoga parviflora, the “herbicidal efficacy Galinsoga parviflora” value is 10 (10: 100%).
On to `COC(=O)N(C(=O)OC)c1c([N+](=O)[O-])cnn1-c1nn2c(c1Cl)CCCC2` [Compound 3], for which the “herbicidal efficacy Digitaria ciliaris” value in the series on Digitaria ciliaris [7] is given as 10 (10: 100%). For the same molecule, the “herbicidal efficacy Galinsoga parviflora” value in the series with Galinsoga parviflora is given as 10 (10: 100%).
`COC(=O)N(C(=O)OC)c1c(C#N)cnn1-c1nn2c(c1Br)CCCC2` [Compound 4]: the “herbicidal efficacy Echinochloa crus-galli” value in the series with Echinochloa crus-galli (1g a.i./10a) and in the series with Echinochloa crus-galli (5g a.i./10a) was 10 (10: 100%) in each case. Besides, the “herbicidal efficacy Monochoria vaginalis” value with Monochoria vaginalis (1g a.i./10a) and in the series on Monochoria vaginalis (5g a.i./10a) was 10 (10: 100%) throughout. For the same molecule, the “herbicidal efficacy Scirpus juncoides” value is on record as 9 (9: 90% to less than 100%) with Scirpus juncoides (1g a.i./10a) and 10 (10: 100%) with Scirpus juncoides (5g a.i./10a). Besides, the “phytotoxicity Oryza sativa” value in the series with Oryza sativa (1g a.i./10a) is recorded as 0 (0 (exponent): 0% to less than 10% (growth inhibition rate)); in the series on Oryza sativa (5g a.i./10a), 1 (1: 10% to less than 20%). For the same molecule, the “herbicidal efficacy Amaranthus retroflexus” value in the series on Amaranthus retroflexus [1] (5g a.i./10a), with Amaranthus retroflexus [1] (10g a.i./10a), with Amaranthus retroflexus [4] (5g a.i./10a) and in the series on Amaranthus retroflexus [4] (10g a.i./10a) was 10 (10: 100%) each time. In addition, the “herbicidal efficacy Chenopodium album” value in the series on Chenopodium album [2] (5g a.i./10a) is reported as 9 (9: 90% to less than 100%); with Chenopodium album [2] (10g a.i./10a), 10 (10: 100%); in the series on Chenopodium album [5] (5g a.i./10a) it was 10 (10: 100%); with Chenopodium album [5] (10g a.i./10a), 10 (10: 100%). In addition, the “herbicidal efficacy Digitaria ciliaris” value in the series with Digitaria ciliaris [3] (5g a.i./10a), in the series on Digitaria ciliaris [3] (10g a.i./10a), in the series with Digitaria ciliaris [6] (5g a.i./10a), with Digitaria ciliaris [6] (10g a.i./10a) and with Digitaria ciliaris [7] was 10 (10: 100%) each time. Further, in the series on Galinsoga parviflora, the “herbicidal efficacy Galinsoga parviflora” value is 10 (10: 100%).
With `COC(=O)N(C(=O)OC)c1c([N+](=O)[O-])cnn1-c1nn2c(c1Br)CCCC2` [Compound 5], the “herbicidal efficacy Echinochloa crus-galli” value with Echinochloa crus-galli (1g a.i./10a) and with Echinochloa crus-galli (5g a.i./10a) was 9 (9: 90% to less than 100%) each time. The “herbicidal efficacy Monochoria vaginalis” value in the series on Monochoria vaginalis (1g a.i./10a) and in the series with Monochoria vaginalis (5g a.i./10a) was 10 (10: 100%) each time. Further, the “herbicidal efficacy Scirpus juncoides” value in the series on Scirpus juncoides (1g a.i./10a) and with Scirpus juncoides (5g a.i./10a) was 10 (10: 100%) in each case. For the same molecule, the “phytotoxicity Oryza sativa” value with Oryza sativa (1g a.i./10a) and in the series on Oryza sativa (5g a.i./10a) was 1 (1: 10% to less than 20%) each time. Further, the “herbicidal efficacy Amaranthus retroflexus” value in the series with Amaranthus retroflexus [1] (5g a.i./10a), with Amaranthus retroflexus [1] (10g a.i./10a), in the series with Amaranthus retroflexus [4] (5g a.i./10a) and in the series with Amaranthus retroflexus [4] (10g a.i./10a) was 10 (10: 100%) each time. Also, the “herbicidal efficacy Chenopodium album” value in the series with Chenopodium album [2] (5g a.i./10a), in the series on Chenopodium album [2] (10g a.i./10a), in the series with Chenopodium album [5] (5g a.i./10a) and in the series on Chenopodium album [5] (10g a.i./10a) was 10 (10: 100%) each time. Further, the “herbicidal efficacy Digitaria ciliaris” value in the series with Digitaria ciliaris [3] (5g a.i./10a) is listed as 9 (9: 90% to less than 100%); with Digitaria ciliaris [3] (10g a.i./10a), 9 (9: 90% to less than 100%); in the series on Digitaria ciliaris [6] (5g a.i./10a), 9 (9: 90% to less than 100%); with Digitaria ciliaris [6] (10g a.i./10a) it was 10 (10: 100%); in the series on Digitaria ciliaris [7], 9 (9: 90% to less than 100%). Moreover, the “herbicidal efficacy Galinsoga parviflora” value in the series with Galinsoga parviflora is reported as 10 (10: 100%).
With `CC(C)OC(=O)N(C(=O)OC(C)C)c1c(C#N)cnn1-c1nn2c(c1Cl)CCCC2` [Compound 12], the “herbicidal efficacy Digitaria ciliaris” value in the series on Digitaria ciliaris [7] is 10 (10: 100%). The “herbicidal efficacy Galinsoga parviflora” value with Galinsoga parviflora is recorded as 10 (10: 100%).
Regarding `CC(C)COC(=O)N(C(=O)OCC(C)C)c1c(C#N)cnn1-c1nn2c(c1Cl)CCCC2` [Compound 13], the “herbicidal efficacy Digitaria ciliaris” value in the series on Digitaria ciliaris [7] is 10 (10: 100%). In the series on Galinsoga parviflora, the “herbicidal efficacy Galinsoga parviflora” value is reported as 10 (10: 100%).
Regarding `C=CCOC(=O)N(C(=O)OCC=C)c1c([N+](=O)[O-])cnn1-c1nn2c(c1Cl)CCCC2` [Compound 15], the “herbicidal efficacy Digitaria ciliaris” value in the series on Digitaria ciliaris [7] is given as 10 (10: 100%). Also, the “herbicidal efficacy Galinsoga parviflora” value in the series with Galinsoga parviflora is 10 (10: 100%).
Take `CCOC(=O)Nc1c([N+](=O)[O-])cnn1-c1nn2c(c1Cl)CCCC2` [Control agent 2.28, reference compound]: the “phytotoxicity Oryza sativa” value in the series with Oryza sativa (1g a.i./10a) is on record as 0 (0 (exponent): 0% to less than 10% (growth inhibition rate)); in the series on Oryza sativa (5g a.i./10a), 1 (1: 10% to less than 20%).
